From patent publication US20240208937A1, “Compounds and Their Use for Treatment of Hemoglobinopathies” (Bristol-Myers Squibb Company, priority 2022, published 2024) come the findings set out here.

For assay [1], the target named is ZBTB7A (Zinc Finger And BTB Domain Containing 7A) (Homo sapiens (Human), UniProt O95365+Q96SW2). The experiment in a line: HUDEP-2 ZBTB7A HiBiT degradation assay. The conditions noted are these: HUDEP-2 ZBTB7A HiBiT cells, 24 hours treatment, luminescence; for DC50: read-out: ZBTB7A EC50. The format is cell-based. How it is done: (§1) The HiBiT degradation assay for WIZ and ZBTB7A in HUDEP-2 cells was performed as described below. HUDEP-2 cells engineered to express a HiBiT tag in either the WIZ (Widely interspaced zinc finger) or ZBTB7A (Zinc Finger And BTB Domain Containing 7A) proteins were maintained in low attachment flasks in StemSpan SFEM II media supplemented with Penicillin-Streptomycin (50 U/mL), rhSCF (50 ng/mL), rhEPO (3 IU/mL), dexamethasone (0.4 μg/mL) and doxycycline (1 μg/mL). Prior to start of the assay, cell count and viability were measured by trypan blue exclusion using the Vi-cell XR cell viability analyzer. For the HUDEP-2 WIZ HiBiT assay, cells were transferred to a 50 mL conical and centrifuged at 500 g for five minutes. Cells were resuspended in fresh StemSpan SFEM II media supplemented with Penicillin-Streptomycin (50 U/mL), rhSCF (50 ng/mL), rhEPO (3 IU/mL), dexamethasone (0.4 μg/mL) and doxycycline (1 μg/mL) at a density of 1.0×10^6 cells/ml. Forty microliters of cell suspension was dispensed into 384-well Low Flange White Flat Bottom Polystyrene TC-treated Microplates containing pre-dispensed compounds, using a VIAFLO 384 liquid hander, and placed in a 37° C. incubator with 5% CO2. […] After 24 hours of treatment, 40 μL Nano-Glo HiBiT Lytic Detection System reagent was dispensed into each well using a VIAFLO 384 liquid hander. Plates were incubated for 25 minutes at room temperature and the luminescence was read as relative luminescent units using the EnVision plate reader. EC50 and Y-min values were calculated using curves calculated from dotmatics software after the normalization to the DMSO control of 10 different concentrations: 10, 3.33, 1.11, 0.37, 0.12, 0.04 0.0137, 0.0046, 0.0015 and 0.0005 μM respectively.
Chain of ZBTB7A (Zinc Finger And BTB Domain Containing 7A) (O95365 whole entry, the tested form may be a part): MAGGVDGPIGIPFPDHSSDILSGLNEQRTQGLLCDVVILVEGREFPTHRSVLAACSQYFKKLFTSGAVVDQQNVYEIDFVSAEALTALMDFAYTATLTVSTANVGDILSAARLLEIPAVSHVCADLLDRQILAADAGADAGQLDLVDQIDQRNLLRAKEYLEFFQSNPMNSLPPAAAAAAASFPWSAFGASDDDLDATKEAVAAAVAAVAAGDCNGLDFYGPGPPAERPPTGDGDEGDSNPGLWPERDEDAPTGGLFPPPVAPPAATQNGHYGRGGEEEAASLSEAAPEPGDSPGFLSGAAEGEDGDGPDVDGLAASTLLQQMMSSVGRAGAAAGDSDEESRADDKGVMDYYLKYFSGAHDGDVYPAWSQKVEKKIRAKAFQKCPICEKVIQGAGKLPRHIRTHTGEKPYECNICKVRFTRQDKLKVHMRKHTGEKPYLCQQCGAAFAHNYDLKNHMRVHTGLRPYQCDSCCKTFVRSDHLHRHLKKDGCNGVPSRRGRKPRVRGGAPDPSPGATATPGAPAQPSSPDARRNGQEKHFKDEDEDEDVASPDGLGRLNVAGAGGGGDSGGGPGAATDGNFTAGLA
Chain of ZBTB7A (Zinc Finger And BTB Domain Containing 7A) (Q96SW2 whole entry, the tested form may be a part): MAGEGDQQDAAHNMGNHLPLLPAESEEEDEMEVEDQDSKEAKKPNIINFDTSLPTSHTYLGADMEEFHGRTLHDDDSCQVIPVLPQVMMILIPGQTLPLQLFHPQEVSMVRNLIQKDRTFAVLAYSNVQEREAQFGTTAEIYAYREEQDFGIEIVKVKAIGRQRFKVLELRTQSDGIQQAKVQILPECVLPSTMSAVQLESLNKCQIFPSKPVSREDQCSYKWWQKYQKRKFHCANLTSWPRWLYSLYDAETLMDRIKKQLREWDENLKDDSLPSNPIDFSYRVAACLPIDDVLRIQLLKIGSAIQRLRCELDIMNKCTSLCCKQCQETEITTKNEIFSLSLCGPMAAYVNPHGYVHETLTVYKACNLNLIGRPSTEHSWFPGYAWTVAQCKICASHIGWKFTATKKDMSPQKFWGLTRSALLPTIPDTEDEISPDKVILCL
Chain of ZBTB7A (Zinc Finger And BTB Domain Containing 7A) (Q16531 whole entry partner, the tested form may be a part): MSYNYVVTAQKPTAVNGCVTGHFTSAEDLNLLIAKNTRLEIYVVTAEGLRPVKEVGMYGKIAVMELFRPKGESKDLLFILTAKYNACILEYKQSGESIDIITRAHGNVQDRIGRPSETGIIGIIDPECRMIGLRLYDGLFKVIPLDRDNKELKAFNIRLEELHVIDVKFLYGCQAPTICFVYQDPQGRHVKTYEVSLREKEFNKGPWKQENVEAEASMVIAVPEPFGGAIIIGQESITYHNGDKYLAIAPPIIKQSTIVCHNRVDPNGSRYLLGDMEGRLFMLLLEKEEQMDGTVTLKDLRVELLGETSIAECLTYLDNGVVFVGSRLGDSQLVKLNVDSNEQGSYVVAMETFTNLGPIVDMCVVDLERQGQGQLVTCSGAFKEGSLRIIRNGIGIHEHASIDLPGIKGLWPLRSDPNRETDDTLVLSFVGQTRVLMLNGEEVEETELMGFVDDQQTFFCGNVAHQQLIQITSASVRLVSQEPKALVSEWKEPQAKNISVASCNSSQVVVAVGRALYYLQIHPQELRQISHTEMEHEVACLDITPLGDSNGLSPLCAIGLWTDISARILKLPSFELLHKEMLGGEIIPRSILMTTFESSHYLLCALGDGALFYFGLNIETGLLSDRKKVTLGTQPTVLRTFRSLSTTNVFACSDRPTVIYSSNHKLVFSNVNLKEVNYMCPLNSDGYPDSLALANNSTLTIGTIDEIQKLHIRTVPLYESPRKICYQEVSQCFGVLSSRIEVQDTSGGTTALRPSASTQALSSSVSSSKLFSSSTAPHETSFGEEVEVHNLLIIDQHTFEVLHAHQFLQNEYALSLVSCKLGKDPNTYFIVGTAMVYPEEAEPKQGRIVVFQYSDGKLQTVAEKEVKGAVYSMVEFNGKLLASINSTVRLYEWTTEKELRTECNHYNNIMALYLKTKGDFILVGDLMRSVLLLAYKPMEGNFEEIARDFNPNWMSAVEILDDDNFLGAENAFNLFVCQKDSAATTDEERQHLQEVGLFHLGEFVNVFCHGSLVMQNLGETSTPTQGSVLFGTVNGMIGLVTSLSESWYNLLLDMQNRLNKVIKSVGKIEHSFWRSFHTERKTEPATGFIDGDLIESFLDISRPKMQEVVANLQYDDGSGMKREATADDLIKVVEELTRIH
For the HUDEP-2 ZBTB7A HiBiT assay, cell count and viability were measured by trypan blue exclusion using the Vi-cell XR cell viability analyzer and the cells were transferred to a 50 mL conical and centrifuged at 500 g for five minutes. Cells were resuspended in fresh IMDM media supplemented with L-Glutamine (1×), Penicillin-Streptomycin (50 U/mL), holo-transferrin (330 μg/mL), heparin (2 IU/mL), r-human Insulin (10 μg/mL), rhEPO (3 IU/mL), rhSCF (100 ng/mL)+Dox (1 μg/mL) and 5% human plasma in low attachment flasks, which were placed in a 37° C. incubator with 5% CO2. After 48 hours, cell count and viability were measured by trypan blue exclusion using the Vi-cell XR cell viability analyzer. The HUDEP-2 ZBTB7A cells were transferred to a 50 mL conical, centrifuged at 500 g for five minutes and resuspended at a density of 1.0×10^6 cells/ml in IMDM media supplemented with L-Glutamine (1×), Penicillin-Streptomycin (50 U/mL), holo-transferrin (330 μg/mL), heparin (2 IU/mL), r-human Insulin (10 μg/mL), rhEPO (3 IU/mL), rhSCF (100 ng/mL)+Dox (1 μg/mL) and 5% human plasma. Forty microliters of cell suspension was dispensed into 384-well Low Flange White Flat Bottom Polystyrene TC-treated Microplates containing pre-dispensed compounds, using a VIAFLO 384 liquid hander, and placed in a 37° C. incubator with 5% CO2. […] After 24 hours of treatment, 40 μL Nano-Glo HiBiT Lytic Detection System reagent was dispensed into each well using a VIAFLO 384 liquid hander. Plates were incubated for 25 minutes at room temperature and the luminescence was read as relative luminescent units using the EnVision plate reader. EC50 and Y-min values were calculated using curves calculated from dotmatics software after the normalization to the DMSO control of 10 different concentrations: 10, 3.33, 1.11, 0.37, 0.12, 0.04 0.0137, 0.0046, 0.0015 and 0.0005 μM respectively.
For orientation: With HiBiT, luminescence reflects the tagged protein that the partner subunit can reach.

Assay [2] addresses WIZ (Widely interspaced zinc finger) (Homo sapiens (Human), UniProt O95785+Q96SW2). The experiment in a line: HUDEP-2 WIZ HiBiT degradation assay. The format is cell-based. The note with it: HUDEP-2 WIZ HiBiT cells, 24 hours treatment, luminescence; for DC50: read-out: WIZ EC50. As for the experimental part:
as §1

Chain of WIZ (Widely interspaced zinc finger) (O95785 whole entry): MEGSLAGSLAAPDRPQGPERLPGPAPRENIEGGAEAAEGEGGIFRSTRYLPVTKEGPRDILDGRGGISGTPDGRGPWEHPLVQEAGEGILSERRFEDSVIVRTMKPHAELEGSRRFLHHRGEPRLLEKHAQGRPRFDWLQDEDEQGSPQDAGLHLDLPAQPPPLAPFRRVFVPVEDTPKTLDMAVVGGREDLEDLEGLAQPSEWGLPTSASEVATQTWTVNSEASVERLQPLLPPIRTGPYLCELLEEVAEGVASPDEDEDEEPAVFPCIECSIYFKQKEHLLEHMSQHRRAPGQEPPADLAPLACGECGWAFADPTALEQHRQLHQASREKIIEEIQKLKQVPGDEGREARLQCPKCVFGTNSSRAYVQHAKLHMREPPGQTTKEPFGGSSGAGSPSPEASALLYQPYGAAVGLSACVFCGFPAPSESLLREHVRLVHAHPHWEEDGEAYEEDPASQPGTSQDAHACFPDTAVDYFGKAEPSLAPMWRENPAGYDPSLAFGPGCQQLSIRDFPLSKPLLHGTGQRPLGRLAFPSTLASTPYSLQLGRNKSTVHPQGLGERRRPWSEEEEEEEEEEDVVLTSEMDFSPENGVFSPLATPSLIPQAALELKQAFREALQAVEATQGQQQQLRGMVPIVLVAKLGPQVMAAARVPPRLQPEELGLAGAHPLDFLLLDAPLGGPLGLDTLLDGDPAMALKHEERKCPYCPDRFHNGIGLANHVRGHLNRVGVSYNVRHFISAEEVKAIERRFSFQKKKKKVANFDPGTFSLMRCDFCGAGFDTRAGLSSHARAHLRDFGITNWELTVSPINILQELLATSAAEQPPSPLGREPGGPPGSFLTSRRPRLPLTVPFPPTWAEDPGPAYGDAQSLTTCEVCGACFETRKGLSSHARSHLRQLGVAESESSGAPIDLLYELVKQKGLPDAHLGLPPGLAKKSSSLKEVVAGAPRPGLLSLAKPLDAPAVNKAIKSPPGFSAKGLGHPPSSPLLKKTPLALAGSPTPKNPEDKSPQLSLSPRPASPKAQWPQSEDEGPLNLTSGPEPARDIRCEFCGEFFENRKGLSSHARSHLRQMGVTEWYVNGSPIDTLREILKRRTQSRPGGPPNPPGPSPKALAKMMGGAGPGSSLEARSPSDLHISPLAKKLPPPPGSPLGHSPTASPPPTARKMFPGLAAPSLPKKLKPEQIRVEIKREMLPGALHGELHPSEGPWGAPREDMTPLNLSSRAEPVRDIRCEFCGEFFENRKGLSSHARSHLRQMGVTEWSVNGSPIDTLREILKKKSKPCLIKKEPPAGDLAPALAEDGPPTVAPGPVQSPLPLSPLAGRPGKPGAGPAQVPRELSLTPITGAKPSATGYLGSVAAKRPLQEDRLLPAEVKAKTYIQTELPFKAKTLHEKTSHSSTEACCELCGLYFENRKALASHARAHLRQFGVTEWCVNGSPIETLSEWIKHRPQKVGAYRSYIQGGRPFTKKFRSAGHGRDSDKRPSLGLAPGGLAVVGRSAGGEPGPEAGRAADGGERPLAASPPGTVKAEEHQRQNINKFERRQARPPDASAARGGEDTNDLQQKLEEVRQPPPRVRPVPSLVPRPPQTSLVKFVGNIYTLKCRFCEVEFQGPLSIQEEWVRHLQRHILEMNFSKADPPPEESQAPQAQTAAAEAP
Chain of WIZ (Widely interspaced zinc finger) (Q96SW2 whole entry): as the sequence (Q96SW2 whole entry, the tested form may be a part) above
Chain of WIZ (Widely interspaced zinc finger) (Q16531 whole entry partner): as the sequence (Q16531 whole entry partner, the tested form may be a part) above

By EC50 is commonly meant the concentration at which the effect is half-maximal. Lower therefore signals higher potency in that assay. In turn, `Cc1nn(C)cc1-c1cc2c(cc1Nc1cccc3c1C(=O)N([C@H]1CCC(=O)NC1=O)C3=O)N(C)C(=O)CC2` [Compound 38, (S)-4-((6-(1,3-dimethyl-1H-pyrazol-4-yl)-1-methyl-2-oxo-1,2,3,4-tetrahydroquinolin-7-yl)amino)-2-(2,6-dioxopiperidin-3-yl)isoindoline-1,3-dione] had an EC50 in assay [1] of less than 30 nM. The DC50 in assay [2] lay within 10 to 100 nM.

For `CN1C(=O)CCc2cc(-c3cnn(C4CC4)c3)c(Nc3cccc4c3C(=O)N([C@H]3CCC(=O)NC3=O)C4=O)cc21` [Compound 37, (S)-4-((6-(1-cyclopropyl-1H-pyrazol-4-yl)-1-methyl-2-oxo-1,2,3,4-tetrahydroquinolin-7-yl)amino)-2-(2,6-dioxopiperidin-3-yl)isoindoline-1,3-dione], the EC50 is less than 30 nM in assay [1] and less than 10 nM in assay [2].

`Cc1cc(-c2cc3c(cc2Nc2cccc4c2C(=O)N([C@]2(C)CCC(=O)NC2=O)C4=O)N(C)C(=O)CC3)ccn1` [Compound 53, (R)-2-(3-methyl-2,6-dioxopiperidin-3-yl)-4-((1-methyl-6-(2-methylpyridin-4-yl)-2-oxo-1,2,3,4-tetrahydroquinolin-7-yl)amino)isoindoline-1,3-dione] registered a 50% effective concentration (EC50) in assay [1] greater than 100 nM. In addition, the DC50 in assay [2] is greater than 100 nM.

Consider `Cc1cc(-c2cc3c(cc2Nc2cccc4c2C(=O)N([C@H]2CCC(=O)NC2=O)C4=O)N(C)C(=O)CC3)cn(C)c1=O` [Compound 35, (S)-4-((6-(1,5-dimethyl-6-oxo-1,6-dihydropyridin-3-yl)-1-methyl-2-oxo-1,2,3,4-tetrahydroquinolin-7-yl)amino)-2-(2,6-dioxopiperidin-3-yl)isoindoline-1,3-dione], for which the DC50 in assay [1] lay within 30 to 100 nM; in assay [2], 10 to 100 nM.

With `COc1cc(-c2cc3c(cc2Nc2cccc4c2C(=O)N(C2CCC(=O)NC2=O)C4=O)N(C)C(=O)CC3)c(F)cn1` (stereo not shown) [Compound 51, 2-(2,6-dioxopiperidin-3-yl)-4-((6-(5-fluoro-2-methoxypyridin-4-yl)-1-methyl-2-oxo-1,2,3,4-tetrahydroquinolin-7-yl)amino)isoindoline-1,3-dione], the values for the DC50 in assay [1] and in assay [2] were 30 to 100 nM and 10 to 100 nM, respectively.

For the compound `CC1(N2C(=O)c3cccc(Nc4cccc(COc5ccccc5)c4)c3C2=O)CCC(=O)NC1=O` (stereo not shown) [Compound 54, 2-(3-methyl-2,6-dioxopiperidin-3-yl)-4-((3-(phenoxymethyl)phenyl)amino)isoindoline-1,3-dione], in assay [1], the EC50 was greater than 100 nM. Besides, the DC50 in assay [2] is greater than 100 nM.

For the compound `COc1cc(-c2cc3c(cc2Nc2cccc4c2C(=O)N([C@H]2CCC(=O)NC2=O)C4=O)N(C)C(=O)CC3)cc(C)n1` [Compound 49, (S)-2-(2,6-dioxopiperidin-3-yl)-4-((6-(2-methoxy-6-methylpyridin-4-yl)-1-methyl-2-oxo-1,2,3,4-tetrahydroquinolin-7-yl)amino)isoindoline-1,3-dione], the EC50 in assay [1] was less than 30 nM; in assay [2] it was less than 10 nM.

In assay [1], `CN1C(=O)CCc2cc(-c3cnn(C)c3)c(Nc3cccc4c3C(=O)N(C3CCC(=O)NC3=O)C4=O)cc21` (stereo not shown) [Compound 36, 2-(2,6-dioxopiperidin-3-yl)-4-((1-methyl-6-(1-methyl-1H-pyrazol-4-yl)-2-oxo-1,2,3,4-tetrahydroquinolin-7-yl)amino)isoindoline-1,3-dione] yielded a concentration for a half-maximal effect (EC50) of less than 30 nM. Moreover, the DC50 in assay [2] lay in the range of 10 to 100 nM.

For the compound `COc1nccc(-c2cc3c(cc2Nc2cccc4c2C(=O)N(C2CCC(=O)NC2=O)C4=O)N(C)C(=O)CC3)c1F` (stereo not shown) [Compound 50, 2-(2,6-dioxopiperidin-3-yl)-4-((6-(3-fluoro-2-methoxypyridin-4-yl)-1-methyl-2-oxo-1,2,3,4-tetrahydroquinolin-7-yl)amino)isoindoline-1,3-dione], in assay [1], the EC50 is less than 30 nM. Further, the DC50 in assay [2] was 10 to 100 nM.

In assay [1], `CN1C(=O)CCc2cc(C3CC3)c(Nc3cccc4c3C(=O)N(C3CCC(=O)NC3=O)C4=O)cc21` (stereo not shown) [Compound 34, 4-((6-cyclopropyl-1-methyl-2-oxo-1,2,3,4-tetrahydroquinolin-7-yl)amino)-2-(2,6-dioxopiperidin-3-yl)isoindoline-1,3-dione] had an EC50 of less than 30 nM. For the same compound, in assay [2], the DC50 lay within 10 to 100 nM.

Take `Cc1cc2c(cc1Nc1cccc3c1C(=O)N(C1CCC(=O)NC1=O)C3=O)N(C)C(=O)CC2` (stereo not shown) [Compound 33, 4-((1,6-dimethyl-2-oxo-1,2,3,4-tetrahydroquinolin-7-yl)amino)-2-(2,6-dioxopiperidin-3-yl)isoindoline-1,3-dione]: the DC50 was in the range of 30 to 100 nM in assay [1] and 10 to 100 nM in assay [2].
